In patent US20080248032A1, “COMPOSITIONS AND METHODS FOR PROTECTION AGAINST CARDIAC AND/OR CENTRAL NERVOUS SYSTEM TISSUE INJURY BY INHIBITING SPHINGOSINE-1-PHOSPHATE LYASE” (CHILDREN'S HOSPITAL & RESEARCH CENTER AT OAKLAND, priority 2006, published 2008):
“And” between values parts separate entries of the source, which are not always exact repeats. Equal entries are not always repeated.

Assays:
SPL induced apoptosis = conditions: cells overexpressing SPL; cited from earlier work
[1] = system: ischemia/reperfusion (I/R) injury; test: Langendorff isolated heart ischemia/reperfusion, hearts from THI-treated mice; type: in vivo, C57BL6 male mice
Protocol: C57BL6 male mice were given THI in the water supply for 3 days. […] This example describes use of an isolated perfused heart model system for assessing cardioprotective effects of SPL inhibitors. […] Platinum electrodes connected to a stimulus generator are used to pace hearts at 360 beats/min. […] The balloon is inserted through the left atrium into the left ventricle, and pressures are recorded continuously on a chart recorder. Coronary flow is measured by collecting effluent from the coronary sinus. Noninvasive measurement of LV size and function are performed using standard echocardiographic methods in unanesthetized mice. LV dimensions, fractional shortening and ejection fraction are calculated before and at the end of a treatment period, before sacrifice in all animals.

[2] = system: HEK293 kidney cells stably overexpressing human SPL (hSPL); test: Viability by MTT assay with daunorubicin, vector vs hSPL cells; type: cell-based; conditions: hSPL cells vs vector control; FIG. 2
Protocol: In an additional experiment, HEK293 cells expressing human SPL or vector control were treated with daunorubicin (DNR), and viability was determined by MTT assay. This assay relies on reduction of 3-(4,5-dimethylthiazol-2-yl)-2,5-diphenyl tetrazolium bromide (MTT reagent) by viable cells.

[3] = system: HEK294 cells expressing human SPL cDNA construct (hSPL); test: Viability by MTT assay with doxorubicin, vector vs hSPL cells; type: cell-based; conditions: cells overexpressing SPL vs pcDNA3 vector; 24 h or 48 h; FIG. 1
Protocol: HEK294 cells expressing either pcDNA3 vector (PC) or a human SPL cDNA construct (hSPL) were incubated for 24 h (black bars) or 48 h (white bars) with doxorubicin, harvested and viability was determined by MTT assay. (Mosmann, J Immunol Methods, 1983, 65(1-2): 55-63).

bst1Δ cells = test: Sphingosine sensitivity of yeast growth, bst1Δ strain; type: cell-based, Saccharomyces cerevisiae; conditions: concentrations as low as 10 μM sphingosine
Excerpt: (§1) A further test for SPL activity may be based upon functional complementation in the bst1Δ strain. It has been found, within the context of the present invention, that bst1Δ cells are highly sensitive to D-erythro-sphingosine. […] Such a level of sphingosine has no effect on the growth of wildtype cells.
(§2) A further test for SPL activity may be based upon functional complementation in the bst1Δ strain of Saccharomyces cerevisiae (Saba et al., 1997 J. Biol. Chem. 272:26087). It was been found, within the context of the presently disclosed embodiments, that bst1Δ cells were highly sensitive to D-erythro-sphingosine. […] Such a level of sphingosine had no effect on the growth of wildtype cells.

wildtype cells = test: Sphingosine sensitivity of yeast growth, wildtype; type: cell-based, Saccharomyces cerevisiae; conditions: 10 μM sphingosine
Excerpt: as §1, §2

C[S+]([O-])c1ccc(-c2nc(-c3ccncc3)c(-c3ccc(F)cc3)[nH]2)cc1 (centres unmarked) [SB203580]
effect on SPL induced apoptosis (SPL induced apoptosis): attenuation

CC(=O)c1nc(C(O)C(O)C(O)CO)c[nH]1 (centres unmarked) [THI, 2-acetyl-4-tetrahydroxybutylimidazole]
size of infarction (tissue uptake of tetrazolium red, TTC) ([1]; after 50 min ischemia, 40 min reperfusion, control heart 35%): 17% | LVEDP (LV end-diastolic pressure) ([1]; after 50 min no-flow ischemia, 40 min reperfusion, control heart 52): 34 mmHg | LVDP % Recovery, Ave. ([1]; average of 3 animals): 59.2% | LVDP Baseline, Ave. ([1]; average of 3 animals): 133.0 mmHg | LVDP Reperf. 40′, Ave. ([1]; average of 3 animals): 79.7 mmHg | LVDP (Left Ventricular Developed Pressure), Reperf. 40′ ([1]; individual animals, 50 min no-flow ischemia, 40 min reperfusion): 52 mmHg and 88 mmHg and 99 mmHg | LVDP % Recovery ([1]; individual animals, Reperf. 40′ vs Baseline): 42.6% and 64.2% and 70.7% | LVDP (Left Ventricular Developed Pressure), Baseline ([1]; individual animals, before ischemia): 122 mmHg and 137 mmHg and 140 mmHg

COc1cccc2c1C(=O)c1c(O)c3c(c(O)c1C2=O)C[C@@](O)(C(C)=O)C[C@@H]3O[C@H]1C[C@H](N)[C@H](O)[C@H](C)O1 [daunorubicin]
sensitivity to daunorubicin (viability, MTT) [2]: more sensitive

COc1cccc2c1C(=O)c1c(O)c3c(c(O)c1C2=O)C[C@@](O)(C(=O)CO)C[C@@H]3O[C@H]1C[C@H](N)[C@H](O)[C@H](C)O1 [doxorubicin]
cell survival in the presence of doxorubicin [3]: significantly reduced

Cc1ccc(C(=O)Cn2c3c(sc2=N)CCCC3)cc1 [pifithrin α]
effect on SPL induced apoptosis (SPL induced apoptosis): attenuation

CCCCCCCCCCCCC/C=C/[C@@H](O)[C@@H](N)CO [sphingosine, D-erythro-sphingosine]
growth of bst1Δ cells (bst1Δ cells): completely inhibit | growth of wildtype cells (wildtype cells): no effect
